Assay results taken from patent US20260344673A1, “A SOLID FORM FOR PREPARATION OF AN AQUEOUS DISPERSION, AQUEOUS DISPERSION, STABLE CONCENTRATE, COMBINED AQUEOUS DISPERSION, AND USES THEREOF” (priority 2022, published 2026).

Assays:
[1] = system: Phytophthora cactorum; test: Kirby-Bauer disk diffusion test, Phytophthora cactorum; set-up: % mycelium growth relative to the control: concentration or dose not given beside the values
Procedure: (§1) The performance of the embodiments of the present inventions and their mixtures enriched with millbase (MFA) was analysed against the appropriate reference substance, i.e., a commercial product containing the analogue active substance with the same concentration. The prepared solutions were applied on the paper antibiograms. Then the soaked antibiograms were placed on the Petri Dishes (dish diameter 90 mm) with the growth medium for fungal pathogens V8. Composition of V8: agar, calcium carbonate and multi-vegetable juice. 3 fragments of mycelium of the tested pathogen (5×5 mm) were transplanted onto the prepared medium. As a result, the zones where the fungal growth was inhibited have been measured and compared respectively with the control sample and the analogue active substance sample.
(§2) Assessment was carried out by determining the infested area of the Petri dish in %. These percentages have been converted into efficacy (W) according to Abbot's formula as follows: W=(1−α/β)×100 • where: • α—corresponds to the mycelium/bacterial growth of each tested sample [%], • β—corresponds to the mycelium/bacterial growth in control sample [%].
(§3) In order to estimate if the combined action effect with the commercial fungicide, the W parameter of the mixture was compared with W parameter for particular commercial fungicide solo. Where W=0 the efficacy of the control sample (whole Petri dish covered with mycelium), and W=100 is when no mycelium growth observed.

[2] = system: Phytium ultimum; test: Kirby-Bauer disk diffusion test, Phytium ultimum
Procedure: as §1, §2, §3

[3] = system: Colletotrichum gloeosporioides; test: Kirby-Bauer disk diffusion test, Colletotrichum gloeosporioides; conditions: Colletotrichum gloeosporioides
Procedure: (§4) The microbiological tests were carried out by applying Kirby-Bauer Disk Diffusion Susceptibility Test Protocol for antimicrobial activity. It is based on the formation of a concentration gradient in the growth medium during the diffusion of the active substance from the antibiogram disc (Kirby-Bauer method).
as §1, §2, §3

[4] = system: Colletotrichum spp.; test: Field trial soya, efficacy against Colletotrichum spp.; assay type: in vivo; conditions: field conditions, tank-mix, control (no treatment) 4.21
[5] = system: Erwinia sp.; test: Kirby-Bauer disk diffusion test, bacterial pathogens (inhibition zones, halo effect); conditions: Nutrient Agar, tank-mixes; for Efficacy %: control 0.00; for Erwinia sp. bacterial growth: control 3.5 mm
[6] = system: Septoria nodorum (1291); test: Kirby-Bauer disk diffusion test, Septoria nodorum (1291)
Procedure: as §1, §2, §3

[7] = system: Monilinia fructigena; test: Kirby-Bauer disk diffusion test, Monilinia fructigena
Procedure: as §1, §2, §3

[8] = system: Fusarium oxysporum; test: Kirby-Bauer disk diffusion test, Fusarium oxysporum; conditions: Fusarium oxysporum
Procedure: as §4, §1, §2, §3

[9] = system: Botrytis cinerea; test: Kirby-Bauer disk diffusion test, Botrytis cinerea
Procedure: as §1, §2, §3

[10] = system: oilseed rape; test: Field trial oilseed rape, plant biomass and yield quality/quantity parameters; assay type: in vivo; conditions: field conditions; for The Thousand Grain Weight (TGW): Tables 31-33, control 5.64; for Bulk density: control 0.65; for Yield: control 25.49; for Biomass: control 90.00
Procedure: (§5) Field trials were conducted in Poland according to approved EPPO guidelines: PP 1/135(4), PP 1/152(4), PP 1/181(4) (general), PP 1/1(4) (sugar beet), PP 1/28 (3), PP 1/26(4) (winter wheat), PP 1/78(4) (oilseed), PP1/263 (1), PP1/16 (3) (strawberry), PP 1/2 (5), PP 1/263 (1) (potato). The spray volumes were in line with farmers' practice, varying between 200-300 l/ha. The applications were processed as per the EPPO guideline specific for each crop.

[11] = system: Verticillium longisporum; test: Kirby-Bauer disk diffusion test, Verticillium longisporum
Procedure: as §1, §2, §3

[12] = system: Phytophthora megasperma; test: Kirby-Bauer disk diffusion test, Phytophthora megasperma; conditions: Phytophthora megasperma
Procedure: as §4, §1, §2, §3

[13] = system: Alternaria infectoria/alternata; test: Kirby-Bauer disk diffusion test, Alternaria infectoria/alternata
Procedure: as §1, §2, §3

[14] = system: Zymoseptoria tritici; test: Field trial winter wheat, efficacy against Zymoseptoria tritici; assay type: in vivo; conditions: field conditions, tank-mix, control (no treatment) 4.68
Procedure: (§6) The rates of application (use) of the composition of the present invention (MFA) vary according to type of use, type of crop, the specific active ingredient in the combination, but is such that the active ingredient in the combination is an effective amount to provide the desired action (such as disease control). The application rate of the composition for a given set of conditions can readily be determined by trials.
as §5

[15] = system: Sclerotinia sclerotiorum; test: Kirby-Bauer disk diffusion test, Sclerotinia sclerotiorum
Procedure: as §1, §2, §3

[16] = system: Phoma lingam; test: Field trial oilseed rape, efficacy against Phoma lingam; assay type: in vivo; conditions: field conditions, tank-mix, control (no treatment) 4.18
Procedure: as §6, §5

[17] = system: soya; test: Field trial soya, plant biomass and yield parameters; assay type: in vivo; conditions: field conditions; for Bulk density: control 0.728; for Yield: control 37.41; for Biomass: control 190.0; for The Thousand Grain Weight (TGW): control 205.3
Procedure: as §5

[18] = system: Sclerotinia sclerotiorum; test: Field trial oilseed rape, efficacy against Sclerotinia sclerotiorum; assay type: in vivo; conditions: field conditions, tank-mix, control (no treatment) 6.28
Procedure: as §6, §5

[19] = system: Septoria tritici; test: Kirby-Bauer disk diffusion test, Septoria tritici
Procedure: as §1, §2, §3

[20] = system: Fusarium equiseti; test: Kirby-Bauer disk diffusion test, Fusarium equiseti
Procedure: as §1, §2, §3

[21] = system: Peronospora manshurica; test: Field trial soya, efficacy against Peronospora manshurica; assay type: in vivo; conditions: field conditions, tank-mix, control (no treatment) 5.66
Procedure: as §6, §5

[22] = system: winter wheat; test: Field trial winter wheat, plant biomass and yield parameters; assay type: in vivo; conditions: field conditions; for Bulk density: control 0.67; for The Thousand Grain Weight (TGW): control 41.90; for Yield: control 76.50; for Biomass: control 157.50
Procedure: as §5

[23] = system: Venturia inaegualis; test: Kirby-Bauer disk diffusion test, Venturia inaequalis; conditions: Venturia inaegualis
Procedure: as §4, §1, §2, §3

[24] = system: seeds; test: Seed treatment test: germination rate, infected seeds, shoot and root biomass (all seed species); assay type: in vivo; conditions: applied alone and in mixtures with seed treatment fungicides
Procedure: The method of treating seeds according to the embodiment of the present inventions can be characterised in that in the treatment seed with 30 g checked product with and without combination with fungicidal seed treatment products per 100 kg of seed are employed. The results were assessed due to EPPO: PP1/152(4), PP 1/19 (5), PP 1/135(4) and PP1/181(4) Standards.
Seed treatment test was conducted according to International Rules for Seed Testing 2018 (ISTA) under laboratory conditions using sterile paper as a growing media. The tests were continued for 14 days. As a result, the germination rate and the number of infected seeds were calculated. The biomass (shoots and roots) was collected and measured accordingly.

## COC=C(C(=O)OC)c1ccccc1Oc1cc(Oc2ccccc2C#N)ncn1 [Azoxystrobin (250)]
[1]; V8 medium
  % mycelium growth relative to the control: 33%
[1]; V8 medium, control 5.4 cm
  mycelium growth: 1.8 cm
[1]; control W=0, no growth W=100
  EFFICACY W (Abbot): 67
[2]; V8 medium
  % mycelium growth relative to the control: 100%
[2]; V8 medium, control 8.6 cm
  mycelium growth: 8.6 cm
[2]; control W=0, no growth W=100
  EFFICACY W (Abbot): 0
[3]; V8 medium
  % mycelium growth relative to the control: 50%
[3]; V8 medium, control 5.4 cm
  mycelium growth: 2.7 cm
[3]; control W=0, no growth W=100
  EFFICACY W (Abbot): 50
[4]
  Efficacy Colletotrichum spp.: 1.76 scale 0-10
[5]
  Efficacy %: 22.86%
  Erwinia sp. bacterial growth: 2.7 mm
[6]; V8 medium
  % mycelium growth relative to the control: 30%
[6]; V8 medium, control 5.4 cm
  mycelium growth: 1.6 cm
[6]; control W=0, no growth W=100
  EFFICACY W (Abbot): 70
[7]; V8 medium
  % mycelium growth relative to the control: 0%
[7]; V8 medium, control 5.4 cm
  mycelium growth: 0 cm
[7]; control W=0, no growth W=100
  EFFICACY W (Abbot): 100
[8]; V8 medium
  % mycelium growth relative to the control: 100%
[8]; V8 medium, control 8.6 cm
  mycelium growth: 8.6 cm
[8]; control W=0, no growth W=100
  EFFICACY W (Abbot): 0
[9]; V8 medium
  % mycelium growth relative to the control: 100%
[9]; V8 medium, control 8.6 cm
  mycelium growth: 8.6 cm
[9]; control W=0, no growth W=100
  EFFICACY W (Abbot): 0
[10]
  The Thousand Grain Weight (TGW): 5.34 g
  Bulk density: 0.65 kg/L
  Yield: 25.54 dt/ha
  Biomass: 112.50 dt/ha
[11]; V8 medium
  % mycelium growth relative to the control: 56%
[11]; V8 medium, control 3.9 cm
  mycelium growth: 2.2 cm
[11]; control W=0, no growth W=100
  EFFICACY W (Abbot): 44
[12]; V8 medium
  % mycelium growth relative to the control: 70%
[12]; V8 medium, control 5.4 cm (8.6 cm in Table 25)
  mycelium growth: 3.8 cm
[12]; control W=0, no growth W=100
  EFFICACY W (Abbot): 30
[13]; V8 medium
  % mycelium growth relative to the control: 40%
[13]; V8 medium, control 8.6 cm
  mycelium growth: 3.4 cm
[13]; control W=0, no growth W=100
  EFFICACY W (Abbot): 60
[14]
  Efficacy Zymoseptoria tritici: 4.32 scale 0-10
[15]; V8 medium
  % mycelium growth relative to the control: 100%
[15]; V8 medium, control 8.6 cm
  mycelium growth: 8.6 cm
[15]; control W=0, no growth W=100
  EFFICACY W (Abbot): 0
[16]
  Efficacy Phoma lingam: 3.42 scale 0-10
[17]
  Bulk density: 0.627 kg/L
  Yield: 38.26 dt/ha
  Biomass: 156.7 dt/ha
  The Thousand Grain Weight (TGW): 204.0 g
[18]
  Efficacy Sclerotinia sclerotiorum: 4.32 scale 0-10
[19]; V8 medium
  % mycelium growth relative to the control: 0%
[19]; V8 medium, control 1.9 cm
  mycelium growth: 0 cm
[19]; control W=0, no growth W=100
  EFFICACY W (Abbot): 100
[20]; V8 medium
  % mycelium growth relative to the control: 77%
[20]; V8 medium, control 8.6 cm
  mycelium growth: 6.6 cm
[20]; control W=0, no growth W=100
  EFFICACY W (Abbot): 23
[21]
  Efficacy Peronospora manshurica: 3.32 scale 0-10
[22]
  Bulk density: 0.63 kg/L
  The Thousand Grain Weight (TGW): 43.60 g
  Yield: 66.33 dt/ha
  Biomass: 147.50 dt/ha
[23]; V8 medium
  % mycelium growth relative to the control: 0%
[23]; V8 medium, control 2.9 cm
  mycelium growth: 0 cm
[23]; control W=0, no growth W=100
  EFFICACY W (Abbot): 100

## CC1(C)CCC(Cc2ccc(Cl)cc2)C1(O)Cn1cncn1 (stereo not drawn) [Metconazole (90)]
[4]
  Efficacy Colletotrichum spp.: 2.31 scale 0-10
[10]
  The Thousand Grain Weight (TGW): 6.13 g
  Bulk density: 0.67 kg/L
  Yield: 33.63 dt/ha
  Biomass: 152.50 dt/ha
[14]
  Efficacy Zymoseptoria tritici: 3.11 scale 0-10
[16]
  Efficacy Phoma lingam: 2.99 scale 0-10
[17]
  Bulk density: 0.724 kg/L
  Yield: 32.86 dt/ha
  Biomass: 146.7 dt/ha
  The Thousand Grain Weight (TGW): 207.0 g
[18]
  Efficacy Sclerotinia sclerotiorum: 4.11 scale 0-10
[21]
  Efficacy Peronospora manshurica: 3.13 scale 0-10
[22]
  Bulk density: 0.67 kg/L
  The Thousand Grain Weight (TGW): 46.20 g
  Yield: 78.95 dt/ha
  Biomass: 172.50 dt/ha

## CCCN(CCOc1c(Cl)cc(Cl)cc1Cl)C(=O)n1ccnc1 [Prochloraz (450)]
[4]
  Efficacy Colletotrichum spp.: 2.79 scale 0-10
[5]
  Efficacy %: 0.00%
  Erwinia sp. bacterial growth: 3.5 mm
[10]
  The Thousand Grain Weight (TGW): 5.72 g
  Bulk density: 0.68 kg/L
  Yield: 30.06 dt/ha
  Biomass: 125.00 dt/ha
[14]
  Efficacy Zymoseptoria tritici: 3.37 scale 0-10
[16]
  Efficacy Phoma lingam: 3.11 scale 0-10
[17]
  Bulk density: 0.743 kg/L
  Yield: 41.37 dt/ha
  Biomass: 176.7 dt/ha
  The Thousand Grain Weight (TGW): 211.5 g
[18]
  Efficacy Sclerotinia sclerotiorum: 4.17 scale 0-10
[21]
  Efficacy Peronospora manshurica: 3.37 scale 0-10
[22]
  Bulk density: 0.65 kg/L
  The Thousand Grain Weight (TGW): 46.90 g
  Yield: 71.51 dt/ha
  Biomass: 157.50 dt/ha

## O=C(O)CN(CCN(CC(=O)O)CC(=O)O)CC(=O)O.[Zn+2] [zinc chelated by EDTA, zinc chelated by EDTA (ethylenediamine tetraacetic acid)]
[24]
  biomass increase (shoots and roots): neutral to positive influence
  germination percentage: neutral to positive influence
